Measurements taken from article PMC8401933 (Molecules, 2021).
Entries after “also recorded” stand apart in the source; their conditions may differ.

Legend:
[1] = test system: Pparg and Cebpa genes in 3T3-L1 cells; test: qRT-PCR of adipogenic genes during differentiation; format: cell-based; settings: 3T3-L1 during differentiation; KD025 5 μM, CX-4945 10 μM, Y-27632 10 μM
Experimental: (§1) The preadipocyte 3T3-L1 cell line was kindly provided by Dr. Hyun-Sung Park (University of Seoul) and cultured in Dulbecco’s modified Eagle’s medium (DMEM, Sigma-Aldrich) supplied with 10% heat-inactivated newborn calf serum (Invitrogen, CA, USA), 100 units/mL penicillin, and 100 µg/mL streptomycin (Cellgro, VA, USA). The cells were maintained in an incubator at 37 °C and 5% CO2. To initiate differentiation, the cells were incubated for additional days after 100% confluence and then further incubated in a medium containing fetal bovine serum (FBS) and a differentiation cocktail (DMI, 1 μM dexamethasone, 0.5 mM 3-isobutyl-1-methylxanthine, and 5 μg/mL insulin) as previously described. In brief, at day 3, the culture medium was replaced with DMEM/10%FBS containing 5 µg/mL insulin. Then, growth medium was changed every 2 days.
Total RNA was extracted using easy-BLUE (iNtRON Biotechnology, Dajeon, Korea) in accordance with the manufacturer’s protocol. cDNA was synthesized from 2 µg of total RNA using TOPscript^TM Drymix Kit (Enzynomics, Dajeon, Korea). qRT-PCR was performed using TB Green ® Premix Ex Taq^TM II (Tli RNAse H Plus) (TaKaRa, Japan) with Applied Biosystems QuantStudio™ 1 Real-Time PCR System (Thermo Fisher Scientific, Waltham, MA, USA). Gene expression data were normalized based on the use of the same amount of total RNA samples. The relative fold change of gene expression was calculated using the ∆Ct method.

3T3-L1 cells = test: Adipocyte differentiation, Oil Red O staining; format: cell-based; settings: for lipid accumulation / adipocyte differentiation (ORO staining): 3T3-L1, treated during differentiation; for lipid accumulation / adipocyte differentiation (ORO staining) / adipogenesis (ORO staining): stained at day 8; for quantity of lipid droplets (ORO staining): CX-4945 5 μM, KD025 3 μM
Experimental: as §1
Lipid droplets of cells were stained using ORO (Sigma-Aldrich, MA, USA). In brief, the cells were washed with phosphate buffered saline and incubated with 10% formalin for 5 min. The cells were then fixed with the same volume of fresh formalin for at least 1 h. Subsequently, the cells were washed with 60% isopropanol, air dried completely, and then stained with ORO working solution (1% ORO/isopropanol: distilled water = 3:2). The stained cells were washed with water four times. Cell images were taken by a microscope (Nikon Eclipse TS100-F, Japan). Then, 100% isopropanol was added and incubated for 10 min to quantify the intensity of ORO. The quantity of extracted dye was obtained by obtaining absorbance at 540 nm in the Synergy H1 hybrid reader (BioTek, VT, USA).

ROCK2 = ROCK2 (Homo sapiens, UniProt O75116); test: KINOMEscan Kd determination; settings: 11-point concentrations, duplicate
Chain of ROCK2 (O75116 whole entry): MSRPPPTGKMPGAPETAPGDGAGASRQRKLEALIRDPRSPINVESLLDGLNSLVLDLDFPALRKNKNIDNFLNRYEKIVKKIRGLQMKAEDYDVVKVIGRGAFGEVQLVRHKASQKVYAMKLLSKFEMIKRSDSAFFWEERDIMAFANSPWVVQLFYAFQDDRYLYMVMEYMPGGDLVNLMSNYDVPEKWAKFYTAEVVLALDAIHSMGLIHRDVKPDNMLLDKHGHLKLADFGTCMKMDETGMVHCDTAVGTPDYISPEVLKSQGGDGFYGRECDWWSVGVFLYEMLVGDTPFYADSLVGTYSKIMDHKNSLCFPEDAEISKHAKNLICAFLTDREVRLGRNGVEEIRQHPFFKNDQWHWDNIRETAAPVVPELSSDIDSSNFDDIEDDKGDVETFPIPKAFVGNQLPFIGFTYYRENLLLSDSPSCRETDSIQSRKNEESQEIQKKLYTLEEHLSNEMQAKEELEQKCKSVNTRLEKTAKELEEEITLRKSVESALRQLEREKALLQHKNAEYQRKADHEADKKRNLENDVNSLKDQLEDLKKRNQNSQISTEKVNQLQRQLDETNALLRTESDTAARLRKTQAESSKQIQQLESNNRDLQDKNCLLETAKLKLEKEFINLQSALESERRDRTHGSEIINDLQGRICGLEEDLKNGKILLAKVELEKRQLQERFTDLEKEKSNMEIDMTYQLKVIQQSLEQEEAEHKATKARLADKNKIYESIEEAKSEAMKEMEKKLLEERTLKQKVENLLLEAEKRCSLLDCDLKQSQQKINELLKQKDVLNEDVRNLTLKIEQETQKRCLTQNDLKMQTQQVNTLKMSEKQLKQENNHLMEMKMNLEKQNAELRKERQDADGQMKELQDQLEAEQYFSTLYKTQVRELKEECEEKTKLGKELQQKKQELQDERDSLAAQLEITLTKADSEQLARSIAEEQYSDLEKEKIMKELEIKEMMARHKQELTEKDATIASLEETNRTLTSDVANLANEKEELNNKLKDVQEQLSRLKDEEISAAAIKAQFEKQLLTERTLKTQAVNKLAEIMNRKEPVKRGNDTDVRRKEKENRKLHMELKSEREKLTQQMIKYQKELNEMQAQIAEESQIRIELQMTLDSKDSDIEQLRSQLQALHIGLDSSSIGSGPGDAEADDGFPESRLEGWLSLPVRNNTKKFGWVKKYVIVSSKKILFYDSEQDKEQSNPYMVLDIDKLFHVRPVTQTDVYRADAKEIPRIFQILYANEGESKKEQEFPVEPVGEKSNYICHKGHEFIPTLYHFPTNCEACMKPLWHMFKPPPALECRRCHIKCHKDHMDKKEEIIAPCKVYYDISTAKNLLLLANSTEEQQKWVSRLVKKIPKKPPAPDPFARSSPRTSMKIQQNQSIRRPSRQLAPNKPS
Experimental: Dissociation constant (Kd) was measured using KINOMEscan^TM profiling service. […] The binding activity of inhibitors was monitored by measuring remained kinase-ligand binding activity. Kd was calculated based on the nonlinear least-square fit model by using the “drm” function of drc package [54] in R software (version 3.6.1).

C[C@@H](N)[C@H]1CC[C@H](C(=O)Nc2ccncc2)CC1 [Y-27632]
expression of Pparg and Cebpa genes [1]: increased; also recorded: did not suppress

O=S(=O)(c1cccc2cnccc12)N1CCCNCC1 [fasudil]
lipid accumulation / adipocyte differentiation (ORO staining) (3T3-L1 cells): does not
lipid accumulation / adipocyte differentiation (ORO staining) (3T3-L1 cells; listed as Fasudil): no significant effect

O=C1c2ccc(O)c(O)c2C(=O)c2c(O)ccc(O)c21 [quinalizarin, 1,2,5,8-tetrahydroxyanthraquinone]
adipogenesis (ORO staining) (3T3-L1 cells; 3T3-L1, 5, 10, and 30 μM): suppressed adipogenesis
lipid accumulation / adipocyte differentiation (ORO staining) (3T3-L1 cells): inhibited effectively

O=C(O)c1ccc2c(c1)nc(Nc1cccc(Cl)c1)c1ccncc12 [CX-4945]
expression of Pparg and Cebpa genes [1]: markedly suppressed
lipid accumulation / adipocyte differentiation (ORO staining) (3T3-L1 cells): suppressed the generation of lipid droplets; also recorded: significantly reduced the amount of accumulated fat in a dose-dependent manner
quantity of lipid droplets (ORO staining) (3T3-L1 cells; 3T3-L1, treated during the early (days 0–1) or late (days 5–8) stage): ineffective; also recorded: lesser effect
quantity of lipid droplets (ORO staining) (3T3-L1 cells; 3T3-L1, treated during the intermediate stage (days 1–3)): acted specifically in the middle stage; also recorded: significantly reduced
Kd (ROCK2): no selective interaction; also recorded: did not show such cross-reactivity

CN(C)c1nc2c(Br)c(Br)c(Br)c(Br)c2[nH]1 [DMAT, 2-dimethylamino-4,5,6,7-tetrabromo-1H-benzimidazole]
adipogenesis (ORO staining) (3T3-L1 cells; 3T3-L1, 5 μM): promoting reversely the differentiation
adipogenesis (ORO staining) (3T3-L1 cells; 3T3-L1, 30 μM): inhibited the adipogenesis
lipid accumulation / adipocyte differentiation (ORO staining) (3T3-L1 cells): inhibited effectively
